Reference: patent US20070232796A1, “Medical Solution, a Method for Producing Said Medical Solution and Use Thereof” (priority 2004, published 2007)
“Also recorded” adds a separate entry of the source.

System: Cell Growth
Test: Inhibition of Cell Growth (ICG) as marker for cytotoxicity / biological reactivity
Assay type: cell-based
From the text: FIG. 1 is a diagram showing the relation ship between Inhibition of Cell Growth (ICG) and concentration of 3,4-DGE in a solution.
In order to investigate and come up with the present invention, the present inventors studied the relationship between the different GDPs and came to the conclusion that the GDPs interact according to the reaction formula given above.

## O=CC(=O)C=CC(O)CO (centres unmarked) [3,4-DGE, 3,4-dideoxyglucosone-3-ene]
FIG. 1, ICG used as measure/marker for biological reactivity
  relationship between concentration of 3,4-DGE and Inhibition of Cell Growth (ICG): good dose relation between 3,4-DGE and cytotoxicity; also recorded: dose dependent relationship
Known GDPs: acetaldehyde, formaldehyde, glyoxal, methylglyoxal, 3-DG, 5-HMF
  toxicity compared with the other known GDPs: mast toxic of the known GDPs
